Some test systems named below: CCRF-CEM; OVCAR-4; MDA-MB-231; Hs-578T; MDA-N; SF-539; HCC 2998; COLO 205; LOX IMVI; K562; HCT-15; A498; U-251; NCI-H23; UACC-62; SK-MEL-28; OVCAR-5; HOP-92; MOLT-4; SR.
Common to all, as to assay: NCI tumour cell line growth inhibition, 48 h

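Test compounds were applied to cells in 96-well plates for 48 hours at 5 doses. GI50 is the concentration that inhibits growth by half.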 Active and inactive are the calls of the source. Cut-off read from the data, not from the text of the source: active = GI50 up to about 1.1 µM and inactive = higher. Where only a bound is given, the exact number is not on record here.

`O=C(O)c1cccc2cccc(-c3cccc4cccc(C(=O)O)c34)c12`: the GI50 in the experiment with CCRF-CEM, with OVCAR-4, in the experiment on MDA-MB-231, in the experiment on Hs-578T, in the experiment with MDA-N and in the experiment on SF-539 was > 100 µM (inactive) throughout. Moreover, the GI50 is > 100 µM (inactive) in the experiment on HCC 2998; > 100 µM (inactive) with COLO 205; > 100 µM (inactive) in the experiment on LOX IMVI; > 100 µM (inactive) in the experiment on K562; over 100 µM with HCT-15; > 100 µM (inactive) in the experiment with A498. Besides, the GI50 in the experiment with U-251, in the experiment on NCI-H23, in the experiment with UACC-62, with SK-MEL-28 and with OVCAR-5 was > 100 µM (inactive) each time.
On to `O=C1/C(=N\n2c(S)nnc2-c2ccncc2)c2cc(Cl)ccc2N1CN1CCCCC1`, for which the GI50 is 6.97 µM (inactive) in the experiment on CCRF-CEM; 56 µM (inactive) with HOP-92; 32.2 µM (inactive) with OVCAR-4; > 100 µM (inactive) with MDA-MB-231; 19.8 µM (inactive) in the experiment with Hs-578T; 31.5 µM (inactive) with MDA-N. For the same molecule, the GI50 in the experiment on SF-539 was 35 µM (inactive); with COLO 205, 41 µM (inactive); in the experiment with LOX IMVI it was 17.5 µM (inactive); in the experiment with K562, 20.5 µM (inactive); in the experiment on HCT-15, 25.4 µM; with A498, 50.9 µM (inactive). The GI50 is 12.3 µM (inactive) in the experiment on MOLT-4; 40.4 µM (inactive) in the experiment on U-251; 46.6 µM (inactive) with NCI-H23; 34.4 µM (inactive) in the experiment on UACC-62; 65.3 µM (inactive) in the experiment on SK-MEL-28; > 100 µM (inactive) in the experiment on OVCAR-5.
Take `CSc1nc2ccccc2c(=O)n1/N=C1\C(=O)N(CN2CCCCC2)c2ccc(Cl)cc21`: the GI50 in the experiment on CCRF-CEM is 20.6 µM (inactive); in the experiment on HOP-92, 32.9 µM (inactive); in the experiment on OVCAR-4, 30.2 µM (inactive); with MDA-MB-231, 55.1 µM (inactive); with Hs-578T, 37.7 µM (inactive); with MDA-N, 21.8 µM (inactive). Besides, the GI50 is 37.6 µM (inactive) in the experiment with SF-539; 17.9 µM (inactive) with COLO 205; 14.2 µM (inactive) in the experiment with LOX IMVI; 5.22 µM (inactive) in the experiment on K562; 13.3 µM with HCT-15; 27.8 µM (inactive) in the experiment on A498. Besides, the GI50 was 12.4 µM (inactive) in the experiment on MOLT-4; 33.3 µM (inactive) with U-251; 28.4 µM (inactive) with NCI-H23; 8.89 µM (inactive) in the experiment on UACC-62; 60.5 µM (inactive) in the experiment on SK-MEL-28; 64.6 µM (inactive) in the experiment with OVCAR-5.
As to `Cc1cc2c(cc1Cl)SSc1cc(Cl)c(C)cc1S(=O)(=O)Nc1nc(N)nn1C(O)n1nc(N)nc1NS2(=O)=O`, the GI50 with CCRF-CEM, in the experiment with HOP-92, in the experiment with OVCAR-4, in the experiment on SR, in the experiment on Hs-578T and in the experiment on MDA-N was > 10 µM (inactive) throughout. Further, the GI50 with SF-539 was > 10 µM (inactive); in the experiment with HCC 2998 it was > 10 µM (inactive); with COLO 205, > 10 µM (inactive); in the experiment on LOX IMVI it was > 10 µM (inactive); in the experiment on K562, > 10 µM (inactive); in the experiment on HCT-15, over 10 µM. Moreover, the GI50 in the experiment with A498, in the experiment on MOLT-4, in the experiment with U-251, in the experiment with NCI-H23, in the experiment with SK-MEL-28 and in the experiment with OVCAR-5 was > 10 µM (inactive) each time.
In the case of `COc1ccc(/C=N/NS(=O)(=O)c2ccc(/C=C3\NC(=O)NC3=O)cc2)cc1`, the GI50 with CCRF-CEM was > 100 µM (inactive); in the experiment with HOP-92, > 100 µM (inactive); in the experiment with OVCAR-4 it was > 100 µM (inactive); with MDA-MB-231, 11.2 µM (inactive); in the experiment with Hs-578T, 28.1 µM (inactive); in the experiment on MDA-N, > 100 µM (inactive). Moreover, the GI50 in the experiment with HCC 2998 was > 100 µM (inactive); in the experiment on COLO 205 it was > 100 µM (inactive); with LOX IMVI, > 100 µM (inactive); with K562 it was > 100 µM (inactive); in the experiment with HCT-15, over 100 µM; in the experiment with A498, > 100 µM (inactive). Moreover, the GI50 is > 100 µM (inactive) in the experiment on MOLT-4; 45.2 µM (inactive) in the experiment with U-251; > 100 µM (inactive) in the experiment with NCI-H23; > 100 µM (inactive) with UACC-62; > 100 µM (inactive) with SK-MEL-28; > 100 µM (inactive) with OVCAR-5.
In the case of `O=[N+]([O-])C(C(Cl)=C(Cl)Cl)=C(N(Cc1ccccc1)Cc1ccccc1)N(Cc1ccccc1)Cc1ccccc1`, the GI50 in the experiment with CCRF-CEM was 22.2 µM (inactive); in the experiment on HOP-92 it was 15.6 µM (inactive); in the experiment with MDA-MB-231, 70.6 µM (inactive); with Hs-578T it was > 100 µM (inactive); in the experiment with MDA-N it was 45.3 µM (inactive); with SF-539 it was 30.3 µM (inactive). The GI50 with HCC 2998 is 24 µM (inactive); in the experiment on COLO 205 it was 57 µM (inactive); in the experiment with LOX IMVI, 32.4 µM (inactive); in the experiment on K562 it was 33.7 µM (inactive); in the experiment with HCT-15, over 100 µM; in the experiment with A498, 30.5 µM (inactive). For the same molecule, the GI50 in the experiment with MOLT-4 is > 100 µM (inactive); in the experiment on U-251, > 100 µM (inactive); in the experiment with NCI-H23, > 100 µM (inactive); with UACC-62, > 100 µM (inactive); with SK-MEL-28, > 100 µM (inactive); with OVCAR-5 it was 30.2 µM (inactive).
For `O=C(Nc1ccc(Cl)cc1C(F)(F)F)C(=O)Nn1c(S)nc2ccccc2c1=O`, the GI50 in the experiment on CCRF-CEM was 59.8 µM (inactive); with HOP-92 it was 3.99 µM (inactive); in the experiment on OVCAR-4 it was 60.4 µM (inactive); in the experiment with MDA-MB-231, > 100 µM (inactive); with Hs-578T, > 100 µM (inactive); with MDA-N it was > 100 µM (inactive). Further, the GI50 with SF-539 was > 100 µM (inactive); with HCC 2998 it was > 100 µM (inactive); with LOX IMVI it was > 100 µM (inactive); with K562, > 100 µM (inactive); in the experiment on HCT-15, over 100 µM; in the experiment on A498, > 100 µM (inactive). The GI50 with MOLT-4, in the experiment with U-251, in the experiment with NCI-H23, with UACC-62, with SK-MEL-28 and in the experiment on OVCAR-5 was > 100 µM (inactive) each time.
Turning to `CCCCNC(=S)c1ccc(OC(=O)Nc2ccc(Cl)cc2)cc1`, the GI50 was 26.3 µM (inactive) in the experiment on CCRF-CEM; 8.43 µM (inactive) in the experiment on OVCAR-4; 16.3 µM (inactive) in the experiment with SR; 57.7 µM (inactive) in the experiment with Hs-578T; > 100 µM (inactive) in the experiment on MDA-N; > 100 µM (inactive) in the experiment on SF-539. For the same molecule, the GI50 in the experiment on HCC 2998 is > 100 µM (inactive); in the experiment on COLO 205 it was 15.9 µM (inactive); with LOX IMVI, 0.573 µM (active); in the experiment with K562 it was 1.83 µM (inactive); in the experiment with HCT-15, 12.2 µM; in the experiment on A498, 85.1 µM (inactive). Moreover, the GI50 is 11.4 µM (inactive) in the experiment with MOLT-4; > 100 µM (inactive) in the experiment on U-251; 31.2 µM (inactive) with NCI-H23; 0.914 µM (active) with UACC-62; 22.3 µM (inactive) in the experiment on SK-MEL-28; 40.3 µM (inactive) with OVCAR-5.
For `CNC(=O)OCC1=C(COC(=O)NC)C(C)N(c2ccc(OC)cc2)C1` (stereo not given), the GI50 was 47.2 µM (inactive) with CCRF-CEM; > 100 µM (inactive) in the experiment on HOP-92; 54.6 µM (inactive) in the experiment with OVCAR-4; 15.7 µM (inactive) in the experiment on SR; > 100 µM (inactive) in the experiment on MDA-MB-231; > 100 µM (inactive) in the experiment on Hs-578T. Besides, the GI50 with SF-539 is 59.8 µM (inactive); in the experiment on COLO 205 it was 59 µM (inactive); in the experiment with LOX IMVI, > 100 µM (inactive); in the experiment with K562, 69.2 µM (inactive); with HCT-15, over 100 µM; with A498, 0.351 µM (active). For the same molecule, the GI50 in the experiment on MOLT-4 was 33.6 µM (inactive); with U-251, 22.4 µM (inactive); with NCI-H23, 68.9 µM (inactive); in the experiment with UACC-62 it was 15.3 µM (inactive); with SK-MEL-28, > 100 µM (inactive); with OVCAR-5, 24.1 µM (inactive).
`CC(C)(O)/C=C\P(=O)(O)O`: the GI50 in the experiment on HOP-92, in the experiment with OVCAR-4, in the experiment with SR, in the experiment with Hs-578T, in the experiment on MDA-N and in the experiment with SF-539 was > 100 µM (inactive) in each case. In addition, the GI50 was > 100 µM (inactive) in the experiment with HCC 2998; > 100 µM (inactive) in the experiment on COLO 205; > 100 µM (inactive) in the experiment with LOX IMVI; > 100 µM (inactive) in the experiment on K562; over 100 µM in the experiment with HCT-15; > 100 µM (inactive) with U-251. The GI50 in the experiment with NCI-H23, in the experiment on UACC-62, in the experiment with SK-MEL-28 and in the experiment with OVCAR-5 was > 100 µM (inactive) each time.
Regarding `Cc1ccc(C(=O)Nc2ccc(CP(=O)(O)O)cc2CP(=O)(O)O)cc1NC(=O)c1cccc(NC(=O)Nc2cccc(C(=O)Nc3cc(C(=O)Nc4ccc(CP(=O)(O)O)cc4CP(=O)(O)O)ccc3C)c2)c1`, the GI50 with CCRF-CEM, in the experiment with OVCAR-4, in the experiment on MDA-MB-231, in the experiment with Hs-578T, with MDA-N and in the experiment with SF-539 was > 100 µM (inactive) throughout. Moreover, the GI50 is > 100 µM (inactive) in the experiment with HCC 2998; > 100 µM (inactive) in the experiment on COLO 205; > 100 µM (inactive) in the experiment with LOX IMVI; > 100 µM (inactive) in the experiment on K562; over 100 µM with HCT-15; > 100 µM (inactive) in the experiment on A498. The GI50 in the experiment on MOLT-4, with U-251, in the experiment with NCI-H23, in the experiment on UACC-62, with SK-MEL-28 and in the experiment on OVCAR-5 was > 100 µM (inactive) throughout.

The values are drawn from ChEMBL document CHEMBL1201862, “PubChem BioAssay data set” (2004).
